In ChEMBL document CHEMBL3137667, “[Drug-induced liver injury; fourteenth updated edition of the bibliographic database of liver injuries and related drugs]” (Gastroenterol Clin Biol, 2004):

Tests used:
[1] = human
[2] = human; remark: listed apart in the source
[3] = human; remark: listed apart in the source
[4] = human; remark: listed apart in the source
[5] = Highest frequency of moderate liver toxicity observed during clinical trials, expressed as a percentage. [column '% BIOL' in source]; conditions: human
[6] = human; remark: listed apart in the source
[7] = human, serum
[8] = human; remark: listed apart in the source
[9] = human, serum; remark: listed apart in the source
[10] = Times to onset, minimal and maximal, observed in the indexed observations. [column 'DELAI' in source]; conditions: human
[11] = Proposed mechanism(s) of liver damage. [column 'MEC' in source]; conditions: human
[12] = human; remark: listed apart in the source
[13] = human; remark: listed apart in the source
[14] = human; remark: listed apart in the source
[15] = Highest frequency of acute liver toxicity observed during clinical trials, expressed as a percentage. [column '% AIGUE' in source]; conditions: human
[16] = human, serum, 4383 h
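Throughout, for Hepatotoxicity (association with vascular disease): count of indexed literature references reporting vascular liver injury in humans, e.g. peliosis hepatitis, hepatic veno-occlusive disease or Budd-Chiari syndrome.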
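Throughout, for Hepatotoxicity (benign tumour): value is a count of indexed literature references citing a benign tumour confirmed by histopathology.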
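Throughout, for Hepatotoxicity (choleostasis): human cholestatic liver injury, shown by histopathology or by peak ALT or AST elevation over alkaline phosphatase ratio below 2, value counts indexed literature reports.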
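Throughout, for Hepatotoxicity (chronic liver disease): chronic liver injury confirmed by histopathology or persistently raised serum aminotransferase activity beyond 6 months, value given as the count of indexed literature references.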
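Throughout, for Hepatotoxicity (cirrhosis): value is a count of indexed literature references reporting cirrhosis confirmed by histopathology.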
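Throughout, for Hepatotoxicity (cytolytic): human cytolytic liver injury, shown by histopathology or by a ratio above 5 of peak ALT or AST elevation to alkaline phosphatase elevation, value counts indexed references.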
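Throughout, for Hepatotoxicity (granulomatous hepatitis): value is a count of indexed literature references reporting granulomatous liver disease confirmed by histopathology.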
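Throughout, for Hepatotoxicity (malignant tumour): malignant tumour confirmed by histopathology, value gives the count of indexed literature references reporting it.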
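Throughout, for Hepatotoxicity (severe hepatitis): human clinical data: severe hepatitis, meaning potentially life-threatening liver failure or clinically observed cases, the value counts how many indexed literature references report it.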
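Throughout, for Hepatotoxicity (steatosis): steatosis confirmed by histopathology, value is the count of indexed references.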

| Compound | Hepatotoxicity (malignant tumour) [1] | Hepatotoxicity (cirrhosis) [2] | Hepatotoxicity (granulomatous hepatitis) [3] | Hepatotoxicity (cytolytic) [4] | Hepatotoxicity (moderate) [5] | Hepatotoxicity (association with vascular disease) [6] | Hepatotoxicity (moderate) [7] | Hepatotoxicity (choleostasis) [8] | Hepatotoxicity (acute) [9] | Hepatotoxicity (time to onset) [10] | Hepatotoxicity (mechanism) [11] | Hepatotoxicity (benign tumour) [12] | Hepatotoxicity (severe hepatitis) [13] | Hepatotoxicity (steatosis) [14] | Hepatotoxicity (acute) [15] | Hepatotoxicity (chronic liver disease) [16] | further results |
| --- | --- | --- | --- | --- | --- | --- | --- | --- | --- | --- | --- | --- | --- | --- | --- | --- | --- |
| STIBOGLUCONATE | 0 | 0 | 0 | 1 | 61.5% | 0 | 12 | 0 | 2 | 1 week - 3 weeks | Dose-dependant | 0 | 0 | 0 | 2% | 0 | – |
| CC(C)[C@H](N)C(=O)OCCOCn1cnc2c(=O)[nH]c(N)nc21 [VALACYCLOVIR] | 0 | 0 | 0 | 1 | 17.6% | 0 | 2 | 1 | 1 | 10 days | Dose-dependant | 0 | 0 | 0 | 0% | 0 | – |
| CN[C@@H]1[C@H](O[C@H]2[C@H](O[C@H]3[C@H](O)[C@@H](O)[C@H](NC(=N)N)[C@@H](O)[C@@H]3NC(=N)N)O[C@@H](C)[C@]2(O)CO)O[C@@H](CO)[C@H](O)[C@H]1O [DIHYDROSTREPTOMYCIN] | 0 | 0 | 0 | 1 | 0% | 0 | 0 | 0 | 1 | < 1 days | Allergic | 0 | 0 | 0 | 0% | 0 | – |
| CN1CCN(CCCN2c3ccccc3Sc3ccc(S(=O)(=O)N(C)C)cc32)CC1 [THIOPROPERAZINE] | 0 | 0 | 0 | 2 | 0% | 0 | 0 | 1 | 2 | 24 days - > 1 month | Allergic | 0 | 0 | 0 | 0% | 0 | – |
| CN(C)/N=N/c1[nH]cnc1C(N)=O [DACARBAZINE] | 0 | 0 | 0 | 4 | 50% | 24 | 12 | 2 | 5 | 1 cure - 4 cures | Allergic, Toxic | 0 | 6 | 0 | 0% | 0 | – |
| CC(=O)CCC1C(=O)N(c2ccccc2)N(c2ccccc2)C1=O [KEBUZONE] | 0 | 0 | 0 | 3 | 26.7% | 0 | 1 | 3 | 4 | 1 week - 1 month | Allergic | 0 | 0 | 0 | 2.7% | 0 | – |
| CC(c1cc2ccccc2s1)N(O)C(N)=O (stereo not given) [ZILEUTON] | 0 | 0 | 0 | 1 | 16.7% | 0 | 8 | 0 | 2 | 24 days | Dose-dependant | 0 | 0 | 0 | 0% | 0 | – |
| NC(=O)c1ncn([C@@H]2O[C@H](CO)[C@@H](O)[C@H]2O)n1 [RIBAVIRIN] | 0 | 0 | 0 | 1 | 33% | 0 | 3 | 1 | 2 | 11 weeks - 6 months | Mitochondrial toxicity | 0 | 1 | 1 | 0% | 0 | – |
| O=C1CN=C(c2ccccc2Cl)c2cc([N+](=O)[O-])ccc2N1 [CLONAZEPAM] | 0 | 0 | 0 | 2 | – | 0 | 0 | 0 | 2 | 3 weeks - 4 months | Toxic Metabolite | 0 | – | 0 | – | 0 | Hepatotoxicity (moderate) ([5]; Liver): 0%; Hepatotoxicity (severe hepatitis) ([13]; Liver): 1; Hepatotoxicity (acute) ([15]; Liver): 0% |
| CC1(C)NC(=O)N(c2ccc([N+](=O)[O-])c(C(F)(F)F)c2)C1=O [NILUTAMIDE] | 0 | 0 | – | – | – | 0 | 5 | – | 5 | 1 month - 4 months | – | 0 | – | 0 | – | 0 | Hepatotoxicity (granulomatous hepatitis) ([3]; Liver): 0; Hepatotoxicity (cytolytic) ([4]; Liver): 4; Hepatotoxicity (moderate) ([5]; Liver): 8%; Hepatotoxicity (choleostasis) ([8]; Liver): 0; Hepatotoxicity (mechanism) ([11]; Liver): Reactive metabolite; Hepatotoxicity (severe hepatitis) ([13]; Liver): 4; Hepatotoxicity (acute) ([15]; Liver): 0% |
